Source: patent US11697818B2, “Pyruvate-responsive biosensor, and construction method and use thereof” (priority 2020, dated 2023)

System: strain 168-PR containing the plasmid PHT01-P43D-GFP
Test: Specificity (orthogonality) of pyruvate biosensor towards inducing agents
Format: cell-based, Bacillus subtilis
Details: 5 g of inducing agent added to the medium; strain 168-PR with PHT01-P43D-GFP
Procedure: 2. Detection method for Relative fluorescence intensity: The strain to be determined for the fluorescence intensity is streaked into LB solid medium containing chloramphenicol (5 μg/mL) in a plate. Single colonies are picked up and inoculated into LB liquid medium and incubated at 37° C. and 220 rpm for 12 h. Then the cell suspension is inoculated into 200 μL of LB liquid medium in a 96-well fluorescent microplate in an amount of 2% (V/V), and incubated at 37° C. and 900 rpm. The microplate is removed at different times, and the fluorescence intensity (excitation light: 488 nm, absorption light: 520 nm) and cell density (600 nm) are determined on the Cytation microplate reader (BioTek).

Structure (SMILES) | induction of the activity of the pyruvate biosensor
CC(=O)C(C)O (stereo not shown) [acetoin] | only pyruvate can significantly induce
CC(C)S[C@@H]1O[C@H](CO)[C@H](O)[C@H](O)[C@H]1O [IPTG] | only pyruvate can significantly induce
C[C@H](N)C(=O)O [alanine] | only pyruvate can significantly induce
O=C(O)[C@@H](O)[C@@H](O)[C@H](O)[C@@H](O)C(=O)O [glucaric acid] | only pyruvate can significantly induce
O=C(O)CCC(=O)C(=O)O [α-ketoglutaric acid] | only pyruvate can significantly induce
O=C[C@@H](O)[C@H](O)[C@H](O)CO [arabinose] | only pyruvate can significantly induce
CC(O)C(=O)O (stereo not shown) [lactic acid] | only pyruvate can significantly induce
CC(=O)O [acetic acid] | only pyruvate can significantly induce
O=C[C@H](O)[C@@H](O)[C@H](O)CO [xylose] | only pyruvate can significantly induce
OC[C@H]1O[C@@H](O[C@H]2[C@H](O)[C@@H](O)C(O)O[C@@H]2CO)[C@H](O)[C@@H](O)[C@H]1O (stereo partly shown) [lactose] | only pyruvate can significantly induce
